Source: patent publication US11149062B2, “HDAC inhibitors and methods of treatment using the same” (UWM Research Foundation, Inc., priority 2015, dated 2021)
“Also recorded” adds a separate entry of the source. Where two headings read alike, the source gives them in different places.

Experiments:
Recombinant human HDAC4 = molecular target: T1, Recombinant human HDAC4 (Homo sapiens, UniProt P56524); test: HDAC-Glo I/II assay, HDAC4; type: biochemical
T1 construct: purchased BPS Bioscience Inc
Protocol: (§1) The purified compounds of all fragments and natural product derivatives were evaluated for inhibitory effects on three different classes of HDAC proteins (class I, IIa, and IIb). […] All activity was determined by using a fluorescence-based in vitro assay. Class I HDAC proteins that were evaluated were HDAC1, HDAC2, HDAC3, HDAC8, HDAC4, and HDAC6. Class IIa HDAC protein were HDAC4 and the Class IIb HDAC protein were HDAC6.
(§2) HDAC-Glo™ I/II Assay and Screening System (Promega) was used to determine the HDAC inhibitory activity. Recombinant human HDAC1, HDAC2, HDAC3, HDAC4, HDAC6 and HDAC8 were purchased from BPS Bioscience Inc. The inhibitory activities of the test compounds against recombinant HDAC were performed according to reagent suppliers' protocols.
(§3) All test compounds were firstly dissolved in DMSO to make 10 mM stock solution. A certain amount of stock solution was diluted to 1 mM by DMSO and then reduced by tris(2-carboxyethyl)phosphine hydrochloride (TCEP) in a molar ration of 1:1.5 for 20 min at ambient temperature prior to being assayed. After reduction, a series of fivefold dilutions of each reduced compound were prepared with HDAC-Glo buffer and 25 μL of each dilution was added into a well on a 96-well plate. HDAC enzymes were diluted to the desired concentrations with HDAC-Glo buffer and 25 μL of each diluted enzyme was dispensed into a well to mix with 25 μL of testing compound at room temperature for 30-60 seconds. After the reaction mixture had been incubated at room temperature for 1 hour, 50 μL of HDAC-Glo reagent was added to each reaction well and mixed up for 30-60 seconds. Finally, the plate was incubated at room temperature for an additional 30 minutes before the luminescence was measured on a Synergy HT plate reader (Bio-Tek). The luminescence intensity data were analyzed using GraphPad Prism 5 (GraphPad Software). In the absence of any test compound, the luminescence intensity (I100) in each data set was defined as 100% activity. In the absence of both of HDAC enzymes and test compound, the luminescence intensity (I0) in each data set was defined as 0% activity. The relative activity (%) in the presence of each compound was calculated according to the following equation: % activity=(I−I0)/(I100−I0), where I=the luminescence intensity if a compound is present in the reaction. Experiments were performed in triplicate and the calculated mean values were used for plotting.

HeLa (cervical cancer) = test: MTT antiproliferative assay, HeLa; type: cell-based; details: Homo sapiens, 48 h, read-out: Antiproliferative Activity GI50, Cervical HeLa
Protocol: (§4) Briefly, the tumor cells (1×10^4 cells/well) were seeded in 96-well microtiter plates and incubated for 24 h at 37° C. Following incubation, the media was replaced with fresh media containing the above compounds at concentrations ranging from 1 μM to 1 pM diluted in DMSO and incubated for an additional 48 h. Drugs were run in duplicate or triplicate and control cells received fresh media with DMSO concentration equivalent to the treatment groups. […] After aspirating the culture medium, 200 μL of DMSO was added to dissolve the precipitate and the resulting solution was measured for absorbance at 570 nm with a reference wavelength of 690 nm using a microplate reader (Infinite M200 Pro TECAN).

Recombinant human HDAC1 = molecular target: T2, Recombinant human HDAC1 (Homo sapiens, UniProt Q13547); test: HDAC-Glo I/II assay, HDAC1; type: biochemical; details: for Class I selectivity Ratio HDAC 1/HDAC8: ratio of IC50 values
T2 construct: purchased BPS Bioscience Inc
T2 sequence (Q13547 whole entry): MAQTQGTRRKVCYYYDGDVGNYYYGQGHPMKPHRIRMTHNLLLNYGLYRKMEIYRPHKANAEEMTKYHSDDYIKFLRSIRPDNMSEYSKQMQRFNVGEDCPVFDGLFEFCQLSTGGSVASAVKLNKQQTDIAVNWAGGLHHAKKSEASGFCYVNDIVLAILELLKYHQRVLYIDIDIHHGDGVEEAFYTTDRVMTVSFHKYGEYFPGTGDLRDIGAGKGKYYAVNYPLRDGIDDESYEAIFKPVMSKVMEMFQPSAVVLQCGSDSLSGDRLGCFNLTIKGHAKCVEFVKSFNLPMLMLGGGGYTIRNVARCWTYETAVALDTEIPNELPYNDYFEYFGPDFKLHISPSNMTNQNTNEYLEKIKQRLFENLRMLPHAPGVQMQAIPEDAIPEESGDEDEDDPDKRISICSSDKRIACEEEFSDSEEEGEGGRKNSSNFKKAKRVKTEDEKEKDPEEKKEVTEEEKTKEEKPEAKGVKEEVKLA
Protocol: as §1, §2, §3

HCT-116 (colon cancer) = test: MTT antiproliferative assay, HCT-116; type: cell-based; details: Homo sapiens, read-out: Antiproliferative Activity GI50, Colon HCT-116
Protocol: as §4

[1] = Maximum tolerated dose (MTD); details: BALB/c, mouse, in vivo, ip
Excerpt: (§5) BALB/c mice were purchased from The Jackson Laboratory (Bar Harbor, Me.) and used between 7 and 10 weeks of age. Mice were housed in a conventional animal vivarium and were given free access to food and water. All studies and procedures were approved by the Animal Care and Use Committee of the University of Wisconsin, Milwaukee.
(§6) Each animal was initially weighed using a digital scale and then intraperitoneally (IP) injected with the compounds (listed in Table 2). A single mouse was given a single IP dose of 200 mg/kg, body weight, a second mouse received a dose of 100 mg/kg and a third mouse received a single dose of 50 mg/kg. The mice were observed and weighed every other day for a period of 2 weeks. They were euthanized if they lost more than 20% of their body weight or if there were other signs of significant toxicity. […] This process was repeated until a tolerated dose was found, and the MTD value was determined.
(§7) To determine the MTD in vivo, the compounds listed above were injected intraperitoneally into BALB/c mice and morbidity and mortality were monitored over two weeks.

BALB/c mice = test: Maximum tolerated dose (MTD)
Excerpt: as §5, §6, §7

RFX393 (renal) = test: MTT antiproliferative assay, RFX393; type: cell-based; details: 48 h, read-out: Antiproliferative Activity GI50, Renal RFX393
Protocol: as §4

Recombinant human HDAC2 = molecular target: T3, Recombinant human HDAC2 (Homo sapiens, UniProt Q92769); test: HDAC-Glo I/II assay, HDAC2; type: biochemical; details: Class I HDAC; compounds reduced by TCEP prior to assay
T3 construct: purchased BPS Bioscience Inc
T3 sequence (Q92769 whole entry): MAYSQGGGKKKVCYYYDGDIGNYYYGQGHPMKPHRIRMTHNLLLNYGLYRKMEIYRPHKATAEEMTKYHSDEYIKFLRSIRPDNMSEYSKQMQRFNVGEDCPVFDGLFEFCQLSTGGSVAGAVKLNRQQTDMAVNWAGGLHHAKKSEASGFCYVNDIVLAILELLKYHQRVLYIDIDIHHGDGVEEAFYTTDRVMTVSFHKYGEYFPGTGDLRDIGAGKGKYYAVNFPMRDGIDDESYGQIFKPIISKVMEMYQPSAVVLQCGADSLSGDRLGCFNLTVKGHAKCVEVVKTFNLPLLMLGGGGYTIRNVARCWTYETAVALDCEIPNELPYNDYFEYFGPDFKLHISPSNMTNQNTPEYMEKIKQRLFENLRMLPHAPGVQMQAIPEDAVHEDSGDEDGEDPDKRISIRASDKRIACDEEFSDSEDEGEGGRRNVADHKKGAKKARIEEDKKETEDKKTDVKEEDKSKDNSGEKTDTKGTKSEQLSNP
Protocol: as §1, §2, §3

Recombinant human HDAC8 = molecular target: T4, Recombinant human HDAC8 (Homo sapiens, UniProt Q9BY41); test: HDAC-Glo I/II assay, HDAC8; type: biochemical; details: Class I HDAC; compounds reduced by TCEP prior to assay
T4 construct: purchased BPS Bioscience Inc
T4 sequence (Q9BY41 1-377): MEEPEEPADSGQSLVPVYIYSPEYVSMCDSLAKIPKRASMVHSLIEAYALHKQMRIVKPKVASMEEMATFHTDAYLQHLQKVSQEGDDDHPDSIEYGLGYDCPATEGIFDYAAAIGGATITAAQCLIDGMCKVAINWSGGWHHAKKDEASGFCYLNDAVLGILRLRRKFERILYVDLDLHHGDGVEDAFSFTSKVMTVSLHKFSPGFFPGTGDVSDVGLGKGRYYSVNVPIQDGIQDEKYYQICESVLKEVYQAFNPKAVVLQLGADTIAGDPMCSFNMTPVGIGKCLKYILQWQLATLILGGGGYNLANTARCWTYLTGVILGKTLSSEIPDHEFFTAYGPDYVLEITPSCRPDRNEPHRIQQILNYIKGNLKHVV
Protocol: as §1, §2, §3

[2] = 10 mg/mL cpd in 20% DMSO/saline
Recombinant human HDAC3 = molecular target: T5, Recombinant human HDAC3 (Homo sapiens, UniProt O15379); test: HDAC-Glo I/II assay, HDAC3; type: biochemical; details: Class I HDAC; compounds reduced by TCEP prior to assay
T5 construct: purchased BPS Bioscience Inc
T5 sequence (O15379 whole entry): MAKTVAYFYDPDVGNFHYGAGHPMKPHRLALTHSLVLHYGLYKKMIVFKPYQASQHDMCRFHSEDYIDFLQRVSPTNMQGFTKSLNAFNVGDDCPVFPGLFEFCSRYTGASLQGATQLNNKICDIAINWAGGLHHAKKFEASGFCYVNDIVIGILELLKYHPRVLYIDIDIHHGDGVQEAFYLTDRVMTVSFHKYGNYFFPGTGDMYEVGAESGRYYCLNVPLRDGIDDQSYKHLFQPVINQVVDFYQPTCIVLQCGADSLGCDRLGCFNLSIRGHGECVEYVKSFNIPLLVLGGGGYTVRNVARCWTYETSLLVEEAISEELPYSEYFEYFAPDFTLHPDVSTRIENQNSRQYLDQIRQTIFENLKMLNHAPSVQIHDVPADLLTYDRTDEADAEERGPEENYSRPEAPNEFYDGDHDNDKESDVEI
T5 sequence (Q9Y618 395-489 partner limits assumed): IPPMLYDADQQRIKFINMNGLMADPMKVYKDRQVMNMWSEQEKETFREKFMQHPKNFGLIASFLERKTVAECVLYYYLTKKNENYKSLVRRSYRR
Protocol: as §1, §2, §3

class I HDACs = test: HDAC-Glo I/II assay, class I HDACs; type: biochemical, human; details: methyl esters compared with TDF4, TDF5, TDF6
Protocol: The purified compounds of all fragments and natural product derivatives were evaluated for inhibitory effects on three different classes of HDAC proteins (class I, IIa, and IIb). The natural products FK228, SAHA, TDP-A, and TDP-B were used as a positive control. All activity was determined by using a fluorescence-based in vitro assay. Class I HDAC proteins that were evaluated were HDAC1, HDAC2, HDAC3, HDAC8, HDAC4, and HDAC6. Class IIa HDAC protein were HDAC4 and the Class IIb HDAC protein were HDAC6.
as §2
as §3, with “After reduction, a series of fivefold dilutions of each reduced compound were prepared with HDAC-Glo buffer and 25 μL of each dilution was added into a well on a 96-well plate. HDAC enzymes were diluted to the desired concentrations with HDAC-Glo buffer and 25 μL of each diluted enzyme was dispensed into a well to mix with 25 μL of testing compound at room temperature for 30-60 seconds. After the reaction mixture had been incubated at room temperature for 1 hour, 50 μL of HDAC-Glo reagent was added to each reaction well and mixed up for 30-60 seconds.” left out

[3] = system: colon (HCT-116), cervical (HeLa), and renal (RFX393) tumor cell lines; test: MTT antiproliferative assay, all three tumor cell lines; type: cell-based; details: HCT-116, HeLa, RFX393; summary of Table 3; read-out: GI50 values against all three tumor cell lines
Protocol: as §4

COLO-205 (colon cancer) = test: MTT antiproliferative assay, COLO-205; type: cell-based; details: Homo sapiens, COLO 205; MTT, 48 h; read-out: Antiproliferative Activity GI50, Colon COLO-205
Protocol: as §4

DU-145 (prostate cancer) = test: MTT antiproliferative assay, DU-145; type: cell-based; details: Homo sapiens, DU-145; MTT, 48 h; read-out: Antiproliferative Activity GI50, Prostate DU-145
Protocol: as §4

SKOV-3 (ovarian) = test: MTT antiproliferative assay, SKOV-3; type: cell-based; details: Homo sapiens, SK-OV-3; MTT, 48 h; read-out: Antiproliferative Activity GI50, Ovarian SKOV-3
Protocol: as §4

[4] = system: MDA-MB-231 (breast cancer); test: MTT antiproliferative assay, MDA-MB-231; type: cell-based; details: Homo sapiens, MDA-MB-231; MTT, 48 h; read-out: Antiproliferative Activity GI50, Breast MDA-MB-231
Protocol: as §4

adult mice = details: cited from earlier work
histones H3 and H4 = details: 30 min time point; cited from earlier work
[5] = Class IIa HDAC, compounds reduced by TCEP prior to assay, read-out: IC50 of HDAC4
[6] = Class I HDAC, compounds reduced by TCEP prior to assay, read-out: IC50 of HDAC1

T1 sequence (P56524 whole entry): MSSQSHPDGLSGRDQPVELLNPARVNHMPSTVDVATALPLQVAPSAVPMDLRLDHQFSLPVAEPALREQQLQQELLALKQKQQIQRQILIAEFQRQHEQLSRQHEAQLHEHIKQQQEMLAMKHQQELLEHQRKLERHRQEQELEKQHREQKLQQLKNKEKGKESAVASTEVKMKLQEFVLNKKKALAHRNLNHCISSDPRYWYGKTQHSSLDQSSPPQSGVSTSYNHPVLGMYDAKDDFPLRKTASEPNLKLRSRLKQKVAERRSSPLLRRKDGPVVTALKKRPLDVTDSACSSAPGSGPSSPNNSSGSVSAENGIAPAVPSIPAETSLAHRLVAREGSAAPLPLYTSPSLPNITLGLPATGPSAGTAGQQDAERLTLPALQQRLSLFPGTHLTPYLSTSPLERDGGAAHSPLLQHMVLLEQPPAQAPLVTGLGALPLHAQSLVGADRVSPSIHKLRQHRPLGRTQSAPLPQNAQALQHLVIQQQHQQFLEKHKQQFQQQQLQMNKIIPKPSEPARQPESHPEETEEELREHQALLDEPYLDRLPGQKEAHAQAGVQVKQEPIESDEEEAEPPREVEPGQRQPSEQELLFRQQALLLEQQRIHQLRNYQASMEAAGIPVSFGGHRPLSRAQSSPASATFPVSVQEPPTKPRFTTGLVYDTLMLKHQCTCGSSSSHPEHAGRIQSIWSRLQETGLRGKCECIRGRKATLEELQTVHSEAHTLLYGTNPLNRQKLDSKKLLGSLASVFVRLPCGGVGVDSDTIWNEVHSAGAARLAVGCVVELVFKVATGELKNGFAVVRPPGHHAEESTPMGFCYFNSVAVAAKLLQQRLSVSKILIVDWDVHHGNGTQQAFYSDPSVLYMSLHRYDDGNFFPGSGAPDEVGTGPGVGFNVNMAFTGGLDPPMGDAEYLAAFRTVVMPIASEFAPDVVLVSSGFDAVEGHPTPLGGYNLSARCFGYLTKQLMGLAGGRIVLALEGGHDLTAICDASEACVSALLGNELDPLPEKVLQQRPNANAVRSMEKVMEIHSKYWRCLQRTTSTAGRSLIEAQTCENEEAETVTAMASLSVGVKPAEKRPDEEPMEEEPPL

Compound	IC50 (Recombinant human HDAC2) [µM]	IC50 (Recombinant human HDAC8) [µM]	IC50 (Recombinant human HDAC4; [5]) [µM]	Solubility [2]	GI50 (HeLa (cervical cancer); MTT) [µM]	IC50 (Recombinant human HDAC3) [µM]	IC50 (Recombinant human HDAC1; [6]) [µM]	Class I selectivity Ratio HDAC 1/HDAC8 (Recombinant human HDAC1)	GI50 (HCT-116 (colon cancer); HCT-116, MTT, 48 h) [µM]	MTD at 2 weeks [1] [mg/kg]	GI50 (RFX393 (renal); MTT) [µM]	fold less active toward all class I HDACs (class I HDACs)	also measured
C/C=C1\NC(=O)[C@H]2CSSCC/C=C/[C@H](CC(=O)N[C@H](C(C)C)C(=O)N2)OC(=O)[C@H](C(C)C)NC1=O [FK228, romidepsin, reference compound]													IC50 (Recombinant human HDAC4): 2.37 µM; GI50 (HeLa (cervical cancer)): 0.0013 µM; IC50 (Recombinant human HDAC1): 0.0038 µM; GI50 (HCT-116 (colon cancer); HCT-116, 48 h): 0.0012 µM; MTD at 2 weeks ([1]; MTD (toxicity in healthy BALB/c mice), single IP dose, observed 2 weeks): 3.25 mg/kg; MTD (toxicity in healthy BALB/c mice) (BALB/c mice; single IP dose, observed 2 weeks): 3.125 mg/kg; GI50 (RFX393 (renal)): 0.0012 µM
CCC(C)C(NC(=O)CC(O)/C=C/CCS)C(=O)OC (centres unmarked) [TDF4m]	2.12	117	> 1000	Soluble	20.1	0.0971	0.0303	0.00061	31	> 200	32.1	about 10 fold	
CCCC[C@H](NC(=O)CC(O)/C=C/CCS)C(=O)O (some centres unmarked) [TDF5]	0.0459	49.4	> 1000	Mostly soluble	0.4	0.839	0.0026	0.00002	0.4	> 200	0.5		GI50 [3]: 0.5 µM; GI50 (COLO-205 (colon cancer)): 0.9 µM; GI50 (DU-145 (prostate cancer)): 0.6 µM; GI50 (SKOV-3 (ovarian)): 0.7 µM; GI50 [4]: 0.5 µM; MTD (toxicity in healthy BALB/c mice) (BALB/c mice; BALB/c, mouse, in vivo, ip, 2 weeks): >200 mg/kg
CCCC[C@H](NC(=O)CC(O)/C=C/CCS)C(=O)OC (some centres unmarked) [TDF5m]	1.66	133	> 1000	Soluble	30.2	0.124	0.0265	0.00159	32.6	> 200	40.1	about 10 fold	
COC(=O)[C@@H](NC(=O)CC(O)/C=C/CCS)C(C)C (some centres unmarked) [TDF6m]	1.93	100	> 1000	Soluble	25.6	0.1	0.0302		28.4	> 200	31.7	about 10 fold	
CC(/C=C/C(=O)NO)=C\[C@@H](C)C(=O)c1ccc(N(C)C)cc1 [TSA, trichostatin-A]													object recognition memory 48 h after training (adult mice; single treatment immediately after training, 16.5 mM, chance 15 s): completely intact object recognition memory; also recorded: spent more time than chance; object recognition memory, treatment delayed 3 h after training (adult mice; treatment delayed for 3 h after training): did not enhance memory; acetylation of histones H3 and H4 in dorsal hippocampus (histones H3 and H4): increases the acetylation of histones H3 and H4
